Where only a bound is given, the exact number is not on record here.

The first assay has as its target recombinant human NUDT5 (Homo sapiens, UniProt Q9UKK9). In words: NUDT5 inhibitor activity by malachite green reporter assay. It is filed as biochemical. To be noted: Table 3; 6 nM NUDT5, 50 μM ADP-Ribose, 15 minutes at room temperature. The method, then:
NUDT5 inhibitors were evaluated using a coupled enzymatic assay with detection of inorganic phosphate (Pi) using the malachite green assay. Following enzymatic hydrolysis of ADP-Ribose (Sigma-Aldrich A0572) by NUDT5, to yield AMP and ribose-5-phosphate, the latter product is continuously processed by a significant excess of alkaline phosphatase (Sigma-Aldrich, P0114). Formation of Pi is quantified based on the green complex (that absorbs at 630 nm) formed between malachite green and molybdate according to published procedure (Baykov, A. A., Evtushenko, O. A. and Avaeva, S. M., Anal Biochem, 171, 266-270 (1988)). Assay buffer consisted of 10 mM Tris-acetate at pH 8.0, 40 mM sodium chloride, 10 mM magnesium acetate, 0.005% Tween-20 and 1 mM dithiothreitol (DTT). The final conditions consisted of 6 nM recombinant human NUDT5, 50 μM ADP-Ribose and 10 U/ml of calf intestine alkaline phosphatase. The plates with compounds, enzymes and substrate were incubated at room temperature for 15 minutes, after which the reaction was terminated and the signal developed by the addition of the malachite green reagent using a MultiDrop (Thermo Scientific). Following vigorous shaking on plate shakers for a minimum of eight minutes the absorbance was read in a microplate reader (HidexSense) using a filter at 630 nm and a read time of 0.1 s per well. Inhibitors were used in dilutions from 100 μM to 1.7 nM in 3-fold dilution steps. Experiments were run in duplicate and confirmed in two independent experiments. IC50 values were determined by curve fitting using ExcelFit.
For `Cn1c(=O)c2c(nc(N3CCCCCC3)n2Cc2nnc(-c3ccc(Cl)c(Cl)c3)o2)n(C)c1=O` [Example 21, 8-(azepan-1-yl)-7-{[5-(3,4-dichlorophenyl)-1,3,4-oxadiazol-2-yl]methyl}-1,3-dimethyl-2,3,6,7-tetrahydro-1H-purine-2,6-dione], the IC50 worked out at 50.3 nM. The same measure, in the same setting: the value for `Cn1c(=O)c2c(nc(N3CCN(CCO)CC3)n2Cc2nnc(-c3ccc(Cl)c(Cl)c3)o2)n(C)c1=O` [Example 31, 7-{[5-(3,4-dichlorophenyl)-1,3,4-oxadiazol-2-yl]methyl}-8-[4-(2-hydroxyethyl)piperazin-1-yl]-1,3-dimethyl-2,3,6,7-tetrahydro-1H-purine-2,6-dione] was 106 nM; that for `COc1nc2c(c(=O)n(C)c(=O)n2C)n1Cc1nnc(-c2cccc(C)c2)o1` [Example 52, 8-methoxy-1,3-dimethyl-7-{[5-(3-methylphenyl)-1,3,4-oxadiazol-2-yl]methyl}-2,3,6,7-tetrahydro-1H-purine-2,6-dione] was 378 nM; that for `Cn1c(=O)c2c(nc(N3CCC(CN)CC3)n2Cc2nnc(-c3ccc(Cl)c(Cl)c3)o2)n(C)c1=O` [Example 38, 8-[4-(aminomethyl)piperidin-1-yl]-7-{[5-(3,4-dichlorophenyl)-1,3,4-oxadiazol-2-yl)methyl}-1,3-dimethyl-2,3,6,7-tetrahydro-1H-purine-2,6-dione] was 18.5 nM. Still for that read-out and setting: in the case of `Cc1cccc(-c2nnc(Cn3c(N(C)C)nc4c3c(=O)n(C)c(=O)n4C)o2)c1` [Example 48, 8-(dimethylamino)-1,3-dimethyl-7-{[5-(3-methylphenyl)-1,3,4-oxadiazol-2-yl]methyl}-2,3,6,7-tetrahydro-1H-purine-2,6-dione] it was 69.4 nM; in that of `Cn1c(=O)c2c(nc(N3CCCC(O)C3)n2Cc2nnc(-c3ccc(Cl)c(Cl)c3)o2)n(C)c1=O` (centres unmarked) [Example 44, 7-{[5-(3,4-dichlorophenyl)-1,3,4-oxadiazol-2-yl]methyl}-8-(3-hydroxypiperidin-1-yl)-1,3-dimethyl-2,3,6,7-tetrahydro-1H-purine-2,6-dione], 21.5 nM. Regarding `Cn1c(=O)c2c(nc(N3CC4(COC4)C3)n2Cc2nnc(-c3ccc(Cl)c(Cl)c3)o2)n(C)c1=O` [Example 12, 7-{[5-(3,4-dichlorophenyl)-1,3,4-oxadiazol-2-yl]methyl}-1,3-dimethyl-8-{2-oxa-6-azaspiro[3.3]heptan-6-yl}-2,3,6,7-tetrahydro-1H-purine-2,6-dione], the IC50 was 42.5 nM. For the compound `Cn1c(=O)c2c(nc(NC3CC3)n2Cc2nnc(-c3ccc(Cl)c(Cl)c3)o2)n(C)c1=O` [Example 42, 8-(cyclopropylamino)-7-{[5-(3,4-dichlorophenyl)-1,3,4-oxadiazol-2-yl]methyl}-1,3-dimethyl-2,3,6,7-tetrahydro-1H-purine-2,6-dione], the 50% inhibitory concentration (IC50) came out at 26.4 nM. Still for that read-out and setting: the value for `CCN(CC)c1nc2c(c(=O)n(C)c(=O)n2C)n1Cc1nnc(-c2ccc(Cl)c(Cl)c2)o1` [Example 4, 7-{[5-(3,4-dichlorophenyl)-1,3,4-oxadiazol-2-yl]methyl}-8-(diethylamino)-1,3-dimethyl-2,3,6,7-tetrahydro-1H-purine-2,6-dione] was more than 1000 nM. On the same count and under the same terms, the value for `Cn1c(=O)c2c(nc(N3CCC4(CC3)NC(=O)NC4=O)n2Cc2nnc(-c3ccc(Cl)c(Cl)c3)o2)n(C)c1=O` [Example 22, 8-(7-{[5-(3,4-dichlorophenyl)-1,3,4-oxadiazol-2-yl]methyl}-1,3-dimethyl-2,6-dioxo-2,3,6,7-tetrahydro-1H-purin-8-yl)-1,3,8-triazaspiro[4.5]decane-2,4-dione] was 35.1 nM; that for `CN(C)c1nc2c(c(=O)n(C)c(=O)n2C)n1Cc1nnc(-c2ccc(Cl)c(Cl)c2)o1` [Example 3, 7-{[5-(3,4-dichlorophenyl)-1,3,4-oxadiazol-2-yl]methyl}-8-(dimethylamino)-1,3-dimethyl-2,3,6,7-tetrahydro-1H-purine-2,6-dione] was 111 nM.

Still in this assay, the particulars now being: Table 4; 6 nM NUDT5, 50 μM ADP-Ribose, 15 minutes at room temperature.
For the compound `Cn1c(=O)c2c(nc(-n3ccnc3)n2Cc2nnc(-c3ccc(Cl)c(Cl)c3)o2)n(C)c1=O` [Example 66, 7-{[5-(3,4-dichlorophenyl)-1,3,4-oxadiazol-2-yl]methyl}-8-(1H-imidazol-1-yl)-1,3-dimethyl-2,3,6,7-tetrahydro-1H-purine-2,6-dione], the IC50 came out at 58.2 nM. Take `CN(C)CCN(C)c1nc2c(c(=O)n(C)c(=O)n2C)n1Cc1nnc(-c2ccc(Cl)c(Cl)c2)o1` [Example 135, 7-{[5-(3,4-dichlorophenyl)-1,3,4-oxadiazol-2-yl]methyl}-8-{[2-(dimethylamino)ethyl](methyl)amino}-1,3-dimethyl-2,3,6,7-tetrahydro-1H-purine-2,6-dione]: the IC50 was determined as 96.3 nM.

As for `Cc1cc(-c2nnc(Cn3c(Cl)nc4c3c(=O)n(C)c(=O)n4C)o2)ccc1Cl` [Example 97, 8-chloro-7-{[5-(4-chloro-3-methylphenyl)-1,3,4-oxadiazol-2-yl]methyl}-1,3-dimethyl-2,3,6,7-tetrahydro-1H-purine-2,6-dione], the IC50 was 64.8 nM. Same read-out and setting: the value for `Cn1c(=O)c2c(nc(NCC3CCN(C(=N)N)CC3)n2Cc2nnc(-c3ccc(Cl)c(Cl)c3)o2)n(C)c1=O` [Example 85, 4-{[(7-{[5-(3,4-dichlorophenyl)-1,3,4-oxadiazol-2-yl]methyl}-1,3-dimethyl-2,6-dioxo-2,3,6,7-tetrahydro-1H-purin-8-yl)amino]methyl}piperidine-1-carboximidamide] was 19.5 nM. As to `Cc1ccc(-c2nnc(Cn3c(N4CCNCC4)nc4c3c(=O)n(C)c(=O)n4C)o2)cn1` [Example 125, 1,3-dimethyl-7-{[5-(6-methylpyridin-3-yl)-1,3,4-oxadiazol-2-yl]methyl}-8-(piperazin-1-yl)-2,3,6,7-tetrahydro-1H-purine-2,6-dione], the IC50 came out at 216 nM.

Turning to `Cn1c(=O)c2c(nc(N3CCN(C(=O)OC(C)(C)C)CC3)n2Cc2nnc(-c3ccc(N)cc3)o2)n(C)c1=O` [Example 105, tert-butyl 4-(7-{[5-(4-aminophenyl)-1,3,4-oxadiazol-2-yl]methyl}-1,3-dimethyl-2,6-dioxo-2,3,6,7-tetrahydro-1H-purin-8-yl)piperazine-1-carboxylate], the IC50 was 24500 nM. On the same count and under the same terms, the value for `COc1cc(-c2nnc(Cn3c(NCCNS(C)(=O)=O)nc4c3c(=O)n(C)c(=O)n4C)o2)ccc1C` [Example 133, N-{2-[(7-{[5-(3-methoxy-4-methylphenyl)-1,3,4-oxadiazol-2-yl]methyl}-1,3-dimethyl-2,6-dioxo-2,3,6,7-tetrahydro-1H-purin-8-yl)amino]ethyl}methanesulfonamide] was 352 nM; that for `Cn1c(=O)c2c(nc(NCCS(=O)(=O)O)n2Cc2nnc(-c3ccc(Cl)c(Cl)c3)o2)n(C)c1=O` [Example 82, 2-[(7-{[5-(3,4-dichlorophenyl)-1,3,4-oxadiazol-2-yl]methyl}-1,3-dimethyl-2,6-dioxo-2,3,6,7-tetrahydro-1H-purin-8-yl)amino]ethane-1-sulfonic acid] was 454 nM; that for `COc1cc(-c2nnc(Cn3c(NCCC(N)=O)nc4c3c(=O)n(C)c(=O)n4C)o2)ccc1C` [Example 132, 3-[(7-{[5-(3-methoxy-4-methylphenyl)-1,3,4-oxadiazol-2-yl]methyl}-1,3-dimethyl-2,6-dioxo-2,3,6,7-tetrahydro-1H-purin-8-yl)amino]propanamide] was 157 nM.

The record behind these values is US20210128566A1, “NOVEL FUNCTIONALIZED PURINE-2,6-DIONES AND THEIR USE IN MEDICINE” (THOMAS HELLEDAYS STIFTELSE FÖR MEDICINSK FORSKNING, priority 2017, published 2021).
